Here are results for one molecule from ChEMBL document CHEMBL6127037, “Design, synthesis, and biological evaluation of imidazolylacetophenone oxime derivatives as novel brain-penetrant agents for Alzheimer's disease treatment” (Eur J Med Chem, 2024).

Data set [1] in a line: Drug distribution in ICR mouse liver measured at 1.25 mins by micro-PET/CT imaging analysis. The class given is ADME, tissue-based. The following applies: in vivo, 75 s.
Data set [2] is described as follows: Drug distribution in ICR mouse brain measured at 1.25 mins by micro-PET/CT imaging analysis. In kind it is ADME, tissue-based. The note with it: in vivo, 75 s.
The nature of data set [3]: Drug distribution in ICR mouse heart measured at 1.25 mins by micro-PET/CT imaging analysis. The class given is ADME, tissue-based. The following applies: in vivo, 75 s.
The nature of data set [4]: Drug distribution in ICR mouse lung measured at 1.25 mins by micro-PET/CT imaging analysis. In kind it is ADME, tissue-based. The following applies: in vivo, 75 s.
Data set [5] can be described thus: Drug distribution in ICR mouse kidney measured at 1.25 mins by micro-PET/CT imaging analysis. In kind it is ADME, tissue-based. The note with it: in vivo, 75 s.
Data set [6] is described as follows: Drug distribution in ICR mouse liver measured at 60 mins by micro-PET/CT imaging analysis. In kind it is ADME, tissue-based. The note with it: in vivo, 1 h.
Data set [7] is described as follows: Drug distribution in ICR mouse brain measured at 60 mins by micro-PET/CT imaging analysis. The class given is ADME, tissue-based. The note with it: in vivo, 1 h.
Data set [8] is described as follows: Drug distribution in ICR mouse heart measured at 60 mins by micro-PET/CT imaging analysis. The class given is ADME, tissue-based. The following applies: in vivo, 1 h.
Data set [9] can be described thus: Drug distribution in ICR mouse lung measured at 60 mins by micro-PET/CT imaging analysis. In kind it is ADME, tissue-based. The following applies: in vivo, 1 h.
The nature of data set [10]: Drug distribution in ICR mouse kidney measured at 60 mins by micro-PET/CT imaging analysis. In kind it is ADME, tissue-based. The note with it: in vivo, 1 h.
Data set [11] can be described thus: Drug distribution in ICR mouse kidney measured at 5.5 mins by micro-PET/CT imaging analysis. The following applies: in vivo. The class given is ADME, tissue-based.
Data set [12] in a line: Drug distribution in ICR mouse bone measured at 1.25 to 57.5 mins by micro-PET/CT imaging analysis. The following applies: in vivo, time 1.25-57.5 min. In kind it is ADME, tissue-based, Bone element.
A short description of data set [13]: Drug distribution in ICR mouse muscle measured at 1.25 to 57.5 mins by micro-PET/CT imaging analysis. The class given is ADME, tissue-based, Muscle tissue. The following applies: in vivo, time 1.25-57.5 min.
The nature of data set [14]: Drug distribution in ICR mouse brain measured at 1 mins by micro-PET/CT imaging analysis. In kind it is ADME, tissue-based. The following applies: in vivo.
A short description of data set [15]: Drug distribution in ICR mouse brain measured after 4 to 5 mins by micro-PET/CT imaging analysis. In kind it is ADME, tissue-based. The following applies: in vivo, time 4-5 min.

Take `[18F]CCO/N=C(\Cn1ccnc1)c1ccc2c(c1)OCO2`: the Drug uptake in [1] is given as 18.1 %ID/cc; in data set [2], 7.4 %ID/cc; in [3], 5 %ID/cc; in [4], 5.2 %ID/cc; in data set [5], 3.8 %ID/cc; in data set [6], “Not Active”. Moreover, the Drug uptake entry is on record as “Not Active” in data set [7]; “Not Active” in [8]; “Not Active” in data set [9]; “Not Active” in data set [10]; “Active” in data set [11]; “Active” in data set [12]. In addition, the Drug uptake entry is given as “Active” in data set [13], “Active” in data set [14] and “Not Active” in data set [15].
